Results: patent US4409239A, “Propylene glycol diester solutions of PGE-type compounds” (Syntex (U.S.A.) Inc., priority 1982, dated 1983)

How the values were obtained:
[1] = Stability in peanut oil, USP on storage (comparison); type: physicochemical; conditions: 2 weeks storage at 60° C., 50 mcg per ml peanut oil, 20160 min
[2] = Stability of an E-type prostaglandin in propylene glycol dicaprylate/dicaprate (Captex 200) on storage; type: physicochemical; conditions: for % Remaining of Initial Drug Concentration: 0.25 mg/ml in Captex 200, sealed glass ampules
Procedure: A solution of 0.25 mg (dl)-9-keto-11α,15α-dihydroxy-16-phenoxy-17,18,19,20-tetranorprosta-4,5,13-trans-trienoic acid methyl ester per ml in propylene glycol dicaprylate/dicaprate (Captex 200) was made by dissolving said compound in the solvent with the aid of a magnetic stirrer. Aliquots of this solution were filled into glass ampules and sealed. The ampules were then stored at various temperatures for various durations.

drug remaining [1]: 77.8%
% Remaining of Initial Drug Concentration ([2]; 0 month, 45° C.): 100%
% Remaining of Initial Drug Concentration ([2]; 0 month, 60° C.): 100%
% Remaining of Initial Drug Concentration ([2]; 1 month, 60° C., 43800 min): 97.6%
% Remaining of Initial Drug Concentration ([2]; 3 months, 45° C., 131400 min): 100.7%
% Remaining of Initial Drug Concentration ([2]; 3 months, 60° C., 131400 min): 90.0%
stability in Captex 200 (in words) ([2]; storage at 45° C. and 60° C., 0.25 mg/ml in Captex 200): quite stable
SMILES: COC(=O)CCC=C=CCC1C(=O)CC(O)C1C=CC(O)COc1ccccc1 (stereo not drawn) [(dl)-9-keto-11α,15α-dihydroxy-16-phenoxy-17,18,19,20-tetranorprosta-4,5,13-trans-trienoic acid methyl ester]
